Test results as given in patent US11952365B2, “Anti-viral compounds” (Aligos Therapeutics, Inc., priority 2020, dated 2024).
Read-outs that look alike come from different tables or passages of the source.

Key:
3CLpro = 3CLpro (Severe acute respiratory syndrome coronavirus 2, UniProt P0DTD1); test: SARS-CoV-2 3CLpro protease assay (duplex, SAMDI-MS); assay type: biochemical; set-up: For the duplex assay, 3CLpro and HRV3C was added; settings: 3CLpro, 30 mins preincubation, class symbols; read-out: SARS-Cov-2 IC50
in vitro [1] = settings: human
[2] = test system: human beta-coronavirus OC43; test: microbe, parasite or virus in culture; assay type: cell-based; settings: Betacoronavirus 1, OC43, HeLa, 144 h, OC43 in HeLa cells, 6 days at 33° C., class symbols; read-out: EC50
HRV3C = HRV3C (Human rhinovirus 14, UniProt P03303); test: HRV3C protease assay (duplex, SAMDI-MS); assay type: biochemical, HRV; settings: 30 mins preincubation
Outline: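 HRV3C was preincubated 30 min with compound alongside 3CLpro at ambient temperature, then two biotinylated peptide substrates were added for 30 min. Quenching used 0.5% formic acid (final). Cleaved product was captured on neutravidin SAMDI arrays and quantified by MALDI-TOF as product/internal-standard AUC ratio; IC50 from four-parameter fit.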

[3] = Cytotoxicity plates without OC43 virus (cell-titer-glo); assay type: cell-based, human; settings: human; HeLa cells without OC43 virus, class symbols
Outline: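 Run as a virus-free counterpart of the OC43 cytopathic-effect assay. Attached HeLa cells received compound dilutions in EMEM with 2% FBS and were kept 6 days at 33 °C. Cell viability was then measured by CellTiter-Glo luminescence.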

human cathepsin L = target: T1, human cathepsin L (Homo sapiens, UniProt P07711); test: cathepsin L assay; assay type: biochemical; settings: 10 pM human cathepsin L, Z-FR-AMC 2 μM
T1 construct: purchased R&D Systems
Outline: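 Reactions began by adding 2 μM (final) Z-FR-AMC substrate to 10 pM human cathepsin L that had been preincubated 30 min with inhibitor. Kinetic AMC fluorescence at 355/460 nm over 30 min at 2-min intervals; four-parameter fitting gave IC50 values.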

[4] = test system: SARS-CoV-2-GHB-03021/2020; test: SARS-CoV-2 Infection Model in Huh7 Cells; assay type: cell-based; settings: Severe acute respiratory syndrome coronavirus 2, Huh-7, 96 h, SARS-CoV-2, day 4 p.i., MTS
[5] = test system: SARS-CoV-2-GHB-03021/2020; test: microbe, parasite or virus in culture; assay type: cell-based; settings: Severe acute respiratory syndrome coronavirus 2, Vero C1008, 96 h; read-out: VeroE6 + CP (EC50)
in vitro [6] = settings: African green monkey, VeroE6 + CP (CC50), Vero E6-eGFP cells with CP-100356, absence of virus, MTS
[7] = HRV3C, bound, read-out: HRV IC50
[8] = HRV3C, class symbols, read-out: HRV IC50

Structure (SMILES)	IC50 (3CLpro) [µM]	CC50 (in vitro [1]) [µM]	EC50 [2] [µM]	IC50 (HRV3C; [7]) [µM]	CC50 at 6 days [3] [µM]	IC50 (human cathepsin L; bound) [µM]	EC50 ([4]; class symbols) [µM]	EC50 [5] [µM]	CC50 (in vitro [6]; numeric bounds) [µM]	IC50 (human cathepsin L; class symbols) [µM]	CC50 (in vitro [6]; class symbols) [µM]	IC50 (HRV3C; [8]) [µM]	EC50 ([4]; numeric bounds) [µM]	IC50 (HRV3C; HRV IC50, HRV3C, bound) [µM]
COc1cccc2[nH]c(C(=O)N3C[C@H]4[C@@H]([C@H]3C(=O)N[C@@H](C[C@@H]3CCCNC3=O)C(=O)CO)C4(C)C)cc12 [Compound 49, (1R,2S,5S)—N-[(2S)-4-hydroxy-3-oxo-1-[(3S)-2-oxopiperidin-3-yl]butan-2-yl]-3-(4-methoxy-1H-indole-2-carbonyl)-6,6-dimethyl-3-azabicyclo[3.1.0]hexane-2-carboxamide]	< 0.02	> 100	0.1 to 1	> 10	> 10	> 3.3	1 to 10	1 to 10	> 100					
O=C1NCC[C@H]1C[C@H](NC(=O)[C@@H]1[C@H]2CCC[C@H]2CN1C(=O)c1cc2c(Cl)cc(Oc3ccccc3)cc2[nH]1)C(=O)CO [Compound 129, (1S,3aR,6aS)-2-(4-chloro-6-phenoxy-1H-indole-2-carbonyl)-N-[(2S)-4-hydroxy-3-oxo-1-[(3S)-2-oxopyrrolidin-3-yl]butan-2-yl]-hexahydro-1H-cyclopenta[c]pyrrole-1-carboxamide]	< 0.02	> 10	< 0.1	> 10	> 10		< 1	< 1		≥ 10	> 10			
O=C(NCc1ccccc1)C(=O)C(C[C@@H]1CCNC1=O)NC(=O)[C@@H]1C[C@@H](C(F)(F)F)CN1C(=O)c1cc2ccccc2[nH]1 (stereo partly drawn) [Compound 19, N-benzyl-3-[[(2S,4R)-1-(1H-indole-2-carbonyl)-4-(trifluoromethyl)pyrrolidin-2-yl]formamido]-2-oxo-4-[(3S)-2-oxopyrrolidin-3-yl]butanamide]	0.2 to 2	> 10	0.1 to 1		> 10		1 to 10	1 to 10	> 100	0.1 to 1		2 to 20		
O=C(NCc1ccccc1)C(=O)[C@H](C[C@@H]1CCNC1=O)NC(=O)[C@@H]1C[C@]2(CN1C(=O)c1cc3ccccc3[nH]1)CC2(F)F [Compound 22]	0.2 to 2	> 100	1 to 10		> 10		1 to 10	10 to 100	> 100	0.1 to 1		2 to 20		
COc1cccc2sc(C(=O)N3C[C@@H]4CCC[C@@H]4[C@H]3C(=O)N[C@@H](C[C@@H]3CCNC3=O)C(=O)CO)cc12 [Compound 72, (1S,3aR,6aS)—N-[(2S)-4-hydroxy-3-oxo-1-[(3S)-2-oxopyrrolidin-3-yl]butan-2-yl]-2-(4-methoxy-1-benzothiophene-2-carbonyl)-hexahydro-1H-cyclopenta[c]pyrrole-1-carboxamide]	0.2 to 2	> 100	0.1 to 1	> 10	> 10	> 3.3	1 to 10	1 to 10	> 100					
COc1cccc2[nH]c(C(=O)N3C[C@@H]4CCC[C@@H]4[C@H]3C(=O)NC(CN3CCCC3=O)C(=O)C(=O)NC3CC3)cc12 (single isomer, unassigned) [Compound 113A, (1S,3aR,6aS)—N—((S*)-4-(cyclopropylamino)-3,4-dioxo-1-(2-oxopyrrolidin-1-yl)butan-2-yl)-2-(4-methoxy-1H-indole-2-carbonyl)octahydrocyclopenta[c]pyrrole-1-carboxamide]	0.2 to 2	> 50	1 to 10	> 10	> 10		10 to 100	10 to 100	> 50	≥ 10				
COc1cccc2[nH]c(C(=O)N3C[C@@H]4CCC[C@@H]4[C@H]3C(=O)N[C@H](CN3CCCC3=O)C(=O)C(=O)NC3CC3)cc12 (single isomer, unassigned) [Compound 113B]	2 to 20	> 50	1 to 10		> 10			10 to 100	> 50	≥ 10		2 to 20	> 50	
CSc1cccc2[nH]c(C(=O)N3C[C@@H]4CCC[C@@H]4[C@H]3C(=O)N[C@@H](C[C@@H]3CCNC3=O)C(=O)CO)cc12 [Compound 154, (1S,3aR,6aS)—N—((S)-4-hydroxy-3-oxo-1-((S)-2-oxopyrrolidin-3-yl)butan-2-yl)-2-(4-(methylthio)-1H-indole-2-carbonyl)octahydrocyclopenta[c]pyrrole-1-carboxamide]	< 0.02	> 50	0.1 to 1		> 10		< 1	1 to 10	> 50	≥ 10		2 to 20		
COc1nccc2[nH]c(C(=O)N3C[C@@H]4CCC[C@@H]4[C@H]3C(=O)N[C@@H](C[C@@H]3CCNC3=O)C(=O)CO)cc12 [Compound 93, (1S,3aR,6aS)—N-[(2S)-4-hydroxy-3-oxo-1-[(3S)-2-oxopyrrolidin-3-yl]butan-2-yl]-2-{4-methoxy-1H-pyrrolo[3,2-c]pyridine-2-carbonyl}-hexahydro-1H-cyclopenta[c]pyrrole-1-carboxamide]	< 0.02	> 100	1 to 10		> 10		10 to 100	10 to 100	> 50	≥ 10				> 10
CC1(C)[C@@H]2[C@@H](C(=O)N[C@@H](C[C@@H]3CCNC3=O)C(=O)CO)N(C(=O)c3cc4c(Cl)cc(Cl)cc4[nH]3)C[C@@H]21 [Compound 127, (1R,2S,5S)-3-(4,6-dichloro-1H-indole-2-carbonyl)-N-[(2S)-4-hydroxy-3-oxo-1-[(3S)-2-oxopyrrolidin-3-yl]butan-2-yl]-6,6-dimethyl-3-azabicyclo[3.1.0]hexane-2-carboxamide]	0.02 to 0.2	> 10	0.1 to 1		> 10		< 1	< 1	> 50	≥ 10		2 to 20		
COc1cccc2[nH]c(C(=O)N3CCc4ccccc4[C@H]3C(=O)N[C@@H](C[C@@H]3CCNC3=O)C(=O)C(=O)NC3CC3)cc12 [Compound 102]	0.2 to 2	> 100	1 to 10	> 10	> 10		10 to 100	1 to 10	> 100	≥ 10				
CNc1cccc2[nH]c(C(=O)N3C[C@@H]4CCC[C@@H]4[C@H]3C(=O)N[C@@H](C[C@@H]3CCNC3=O)C(=O)CO)cc12 [Compound 153, (1S,3aR,6aS)—N-[(2S)-4-hydroxy-3-oxo-1-[(3S)-2-oxopyrrolidin-3-yl]butan-2-yl]-2-[4-(methylamino)-1H-indole-2-carbonyl]-hexahydro-1H-cyclopenta[c]pyrrole-1-carboxamide]	0.02 to 0.2	> 10	1 to 10	> 10	> 10		10 to 100	10 to 100	> 50	≥ 10				
O=C1NCC[C@H]1C[C@H](NC(=O)[C@@H]1[C@H]2CCC[C@H]2CN1C(=O)c1cc2c(Cl)cc(OCc3ccccc3)cc2[nH]1)C(=O)CO [Compound 130, (1S,3aR,6aS)-2-(6-(benzyloxy)-4-chloro-1H-indole-2-carbonyl)-N—((S)-4-hydroxy-3-oxo-1-((S)-2-oxopyrrolidin-3-yl)butan-2-yl)octahydrocyclopenta[c]pyrrole-1-carboxamide]	0.02 to 0.2	> 10	< 0.1	> 10	> 10		< 1	< 1		≥ 10	> 10			
COc1cc(Cl)cc2[nH]c(C(=O)N3C[C@@H]4CCC[C@@H]4[C@H]3C(=O)N[C@@H](C[C@@H]3CCNC3=O)C(=O)CO)cc12 [Compound 88, (1S,3aR,6aS)-2-(6-chloro-4-methoxy-1H-indole-2-carbonyl)-N-[(2S)-4-hydroxy-3-oxo-1-[(3S)-2-oxopyrrolidin-3-yl]butan-2-yl]-hexahydro-1H-cyclopenta[c]pyrrole-1-carboxamide]	< 0.02	> 10	< 0.1		> 10		< 1	< 1	> 100	≥ 10		2 to 20		
